Data on 5 molecules can be found in DBAASP.

Molecules are shown by their SMILES. ≈ marks a conversion by molar mass, not a printed value.

Assay in all cases: ≥ marks a high value that may be exact or a test limit, other limits are often not marked, values filed in µg/mL are converted to µM
In experiment [1] the test system is Staphylococcus aureus KCTC 1916.
For experiment [2], the system named is Acinetobacter baumannii CCARM 12037.
Experiment [3] deals with Escherichia coli KCTC 2571.
Experiment [4] relates to Staphylococcus aureus CCARM 3126.
Experiment [5] has as its system Pseudomonas aeruginosa KCTC 2004.
The subject of experiment [6] is Salmonella typhimurium CCARM 8007.
Experiment [7] concerns Staphylococcus aureus KCTC 1621.
For experiment [8], the system named is Pseudomonas aeruginosa CCARM 2095.
In experiment [9] the test system is Staphylococcus aureus KCTC 3881.
Experiment [10] deals with Pseudomonas aeruginosa KCTC 1637.
The subject of experiment [11] is Bacillus subtilis KCTC 3068.
For experiment [12], the system named is Salmonella typhimurium KCTC 1926.
The test system of experiment [13] is Salmonella typhimurium CCARM 8003.
The subject of experiment [14] is Acinetobacter baumannii CCARM 12036.
The test system of experiment [15] is Pseudomonas aeruginosa CCARM 2002.
The test system of experiment [16] is Escherichia coli CCARM 1229.
Experiment [17] deals with Escherichia coli KCTC 1682.
In experiment [18] the test system is Staphylococcus aureus CCARM 3108.
For experiment [19], the system named is Staphylococcus aureus CCARM 3090.
Experiment [20] has as its system Salmonella typhimurium CCARM 8009.
Experiment [21] deals with Staphylococcus aureus CCARM 3089.
For experiment [22], the system named is Pseudomonas aeruginosa CCARM 2003.
The test system of experiment [23] is Staphylococcus epidermidis KCTC 1917.
The test system of experiment [24] is Bacillus subtilis KCTC 1022.
Experiment [25] relates to Pseudomonas aeruginosa CCARM 2163.
For experiment [26], the system named is Bacillus subtilis KCTC 1021.
In experiment [27] the test system is Acinetobacter baumannii CCARM 12035.
The test system of experiment [28] is Escherichia coli CCARM 1238.
Experiment [29] deals with Staphylococcus aureus CCARM 3114.
Experiment [30] relates to Acinetobacter baumannii CCARM 12005.
The subject of experiment [31] is Escherichia coli KCTC 2593.
Experiment [32] deals with Pseudomonas aeruginosa KCTC 2513.
Experiment [33] relates to Staphylococcus aureus BCRC 10780.
In experiment [34] the test system is Streptococcus pneumoniae BCRC 10794.
Experiment [35] concerns Pseudomonas aeruginosa ATCC 27853.
The subject of experiment [36] is Xanthomonas axonopodis pv. glycines ISBF 327.
Experiment [37] concerns Staphylococcus aureus ATCC 29313.
Experiment [38] concerns Escherichia coli ATCC 25922.
Experiment [39] concerns Candida albicans FRR 5580.
The subject of experiment [40] is Pseudomonas aeruginosa ATCC 9027.
Experiment [41] relates to Klebsiella aerogenes ATCC 13048.
In experiment [42] the test system is Escherichia coli DL7.
The subject of experiment [43] is Staphylococcus epidermidis ATCC 12228.
Experiment [44] concerns Bacillus subtilis PS832.

The term MIC denotes the smallest concentration in the dilution series that meets the test's criterion for growth inhibition. A higher MIC goes with a need for much substance. As to `CC[C@H](C)[C@H](NC(=O)CNC(=O)[C@H](CCCN=C(N)N)NC(=O)[C@H](Cc1ccccc1)NC(=O)[C@@H](NC(=O)[C@H](Cc1cnc[nH]1)NC(=O)[C@H](Cc1cnc[nH]1)NC(=O)[C@H](Cc1ccccc1)NC(=O)[C@H](C)N)[C@@H](C)CC)C(=O)N[C@H](C(=O)N[C@@H](Cc1cnc[nH]1)C(=O)N[C@H](C(=O)NCC(=O)N[C@@H](CCCCN)C(=O)N[C@H](C(=O)N[C@H](C(=O)N[C@@H](Cc1cnc[nH]1)C(=O)N[C@@H](CCCN=C(N)N)C(=O)N[C@@H](CC(C)C)C(=O)N[C@H](C(=O)N[C@H](C(=O)NCC(=O)O)[C@@H](C)O)C(C)C)[C@@H](C)CC)[C@@H](C)O)C(C)C)C(C)C` [AFHHIFRGIVHVGKTIHRLVTG], the MIC is 1 µM (≈ 2.5 µg/mL) in [1]; 2 µM (≈ 4.99 µg/mL) in experiment [2]; 2 µM (≈ 4.99 µg/mL) in experiment [3]; 8 µM (≈ 20 µg/mL) in experiment [4]; 4 µM (≈ 9.98 µg/mL) in experiment [5]; 8 µM (≈ 20 µg/mL) in experiment [6]. Also, the MIC in [7] was determined as 1 µM (≈ 2.5 µg/mL); in experiment [8], 2 µM (≈ 4.99 µg/mL); in experiment [9] it was 2 µM (≈ 4.99 µg/mL); in experiment [10], 4 µM (≈ 9.98 µg/mL); in experiment [11] it was 4 µM (≈ 9.98 µg/mL); in [12] it was 8 µM (≈ 20 µg/mL). Moreover, the minimal inhibitory concentration (MIC) came out at 8 µM (≈ 20 µg/mL) in [13]; 2 µM (≈ 4.99 µg/mL) in [14]; 2 µM (≈ 4.99 µg/mL) in [15]; 8 µM (≈ 20 µg/mL) in experiment [16]; 2 µM (≈ 4.99 µg/mL) in experiment [17]; 8 µM (≈ 20 µg/mL) in experiment [18]. The MIC in experiment [19] was 8 µM (≈ 20 µg/mL); in experiment [20] it was 8 µM (≈ 20 µg/mL); in experiment [21], 8 µM (≈ 20 µg/mL); in [22], 2 µM (≈ 4.99 µg/mL); in experiment [23] it was 2 µM (≈ 4.99 µg/mL); in [24] it was 1 µM (≈ 2.5 µg/mL). Besides, the minimum inhibitory concentration (MIC) was 2 µM (≈ 4.99 µg/mL) in experiment [25]; 4 µM (≈ 9.98 µg/mL) in [26]; 2 µM (≈ 4.99 µg/mL) in experiment [27]; 8 µM (≈ 20 µg/mL) in experiment [28]; 8 µM (≈ 20 µg/mL) in experiment [29]; 2 µM (≈ 4.99 µg/mL) in experiment [30]. Also, the MIC was 2 µM (≈ 4.99 µg/mL) in experiment [31] and 8 µM (≈ 20 µg/mL) in [32].

In the case of `CC[C@H](C)[C@H](NC(=O)[C@H](Cc1cnc[nH]1)NC(C)=O)C(=O)N[C@H](C(=O)N[C@@H](CCCCN)C(=O)NCC(=O)N[C@@H](CC(C)C)C(N)=O)[C@@H](C)CC` [HIIKGL], the MIC in experiment [33] and in [34] was at least 147 µM throughout.

As to `CC[C@H](C)[C@H](NC(=O)CN)C(=O)NCC(=O)N[C@@H](CC(=O)O)C(=O)N[C@H](C(=O)N[C@@H](CC(C)C)C(=O)N[C@@H](CCCCN)C(=O)N[C@@H](CC(N)=O)C(=O)N[C@@H](CC(C)C)C(=O)N[C@@H](C)C(=O)N[C@@H](CCCCN)C(=O)N[C@@H](C)C(=O)N[C@@H](C)C(=O)NCC(=O)N[C@@H](CCCCN)C(=O)N[C@@H](C)C(=O)N[C@@H](C)C(=O)N[C@@H](CC(C)C)C(=O)N[C@@H](Cc1cnc[nH]1)C(=O)N[C@@H](C)C(=O)N[C@H](C(=O)NCC(=O)N[C@@H](CCC(=O)O)C(=O)N[C@@H](CO)C(=O)N[C@@H](CC(C)C)C(N)=O)C(C)C)[C@@H](C)CC` [GIGDILKNLAKAAGKAALHAVGESL], the MIC amounted to 77 µM (≈ 186 µg/mL) in experiment [35], 2 µM (≈ 4.83 µg/mL) in [36], 19 µM (≈ 45.9 µg/mL) in [37] and 19 µM (≈ 45.9 µg/mL) in [38].

Take `CC(C)[C@H](NC(=O)[C@@H]1CCCN1C(=O)[C@@H](N)Cc1ccccc1)C(=O)N[C@H](C(=O)N[C@@H](Cc1c[nH]c2ccccc12)C(=O)N[C@@H](CCCN=C(N)N)C(=O)N[C@@H](Cc1c[nH]c2ccccc12)C(=O)N[C@@H](Cc1c[nH]c2ccccc12)C(=O)N[C@@H](CCCCN)C(=O)N[C@@H](Cc1c[nH]c2ccccc12)C(=O)N[C@@H](Cc1c[nH]c2ccccc12)C(=O)N[C@@H](CCCCN)C(=O)NCC(=O)O)[C@@H](C)O` [FPVTWRWWKWWKG]: the MIC in experiment [39] is at least 134 µM; in experiment [40], 67.1 µM (≈ 125 µg/mL).

In the case of `CC[C@H](C)[C@H](NC(=O)[C@H](CCCN=C(N)N)NC(=O)[C@H](CCCCN)NC(=O)[C@H](CC(C)C)NC(=O)[C@H](CC(C)C)NC(=O)CNC(=O)[C@H](Cc1cnc[nH]1)NC(=O)[C@H](C)NC(=O)[C@@H](N)CC(=O)O)C(=O)N[C@@H](CCCCN)C(=O)N[C@H](C(=O)N[C@@H](CC(C)C)C(=O)N[C@@H](CC(C)C)C(N)=O)[C@@H](C)O` [DAHGLLKRIKTLL], the MIC was at least 32 µM in [41], 8 µM (≈ 11.8 µg/mL) in experiment [42], 16 µM (≈ 23.6 µg/mL) in [43] and 2 µM (≈ 2.95 µg/mL) in experiment [44].
